The subject of data set [1] is reovirus type 3. Further details: species or system mice. Conditions: mouse, in vivo.
The subject of data set [2] is reovirus type 1. Further details: species or system Balb/c mice. Particulars: mouse, in vivo.
In data set [3] the test system is neutralizing monoclonal antibody 9BG5. The format is binding, mouse.
The subject of data set [4] is type 1 virus. Further details: species or system Balb/c mice. Conditions: mouse, in vivo.
Data set [5] concerns reovirus type 3. The arrangement: species or system Balb/c mice. Particulars: mouse, in vivo.
Data set [6] deals with reovirus type 1. The arrangement: species or system Balb/c mice. Particulars: mouse, in vivo. This is another data set of the same source.
The subject of data set [7] is reovirus type 3. The arrangement: species or system Balb/c mice. Conditions: mouse, in vivo. This is another data set of the same source.
The subject of data set [8] is type 3 virus. The arrangement: species or system Balb/c mice. Conditions: mouse, in vivo.
Data set [9] has as its system 9B.G5. Put plainly: Competitive RIA: inhibition of 9B.G5 - 87.92.6 interaction. The format is binding.
Data set [10] deals with Reo3R. Put plainly: Inhibition of 125I-labelled reovirus type 3 binding to the Reo3R on cells. Here is the method: The cells were centrifuged and washed twice in 1% BSA/PBS/0.1% NaN3. 5×10^4 cells or 1.25×10^6 R1.1 cells in 50 μl were distributed in 2% BSA/PBS/NaN3 blocked RIA wells. For peptide studies, 50 μl of inhibitor was added in dH2O to the cells. Following a 30 minute incubation, L cells and ^125I-labelled reovirus type 3 were combined for an additional 30 minutes at 37° C. The cells were spun, washed three times in ice cold PBS, and specific CPM bound was determined as noted above. Percent inhibition of binding was calculated by the formulae above.
To further evaluate the interaction of VLC9C16 peptide with the Reo3R, the peptide was utilized to compete with ^125I-labelled reovirus type 3 for binding to the Reo3R.

The nature of data set [11]: Rate of loss of sulfhydryls on air oxidation (Ellman determination). In kind it is physicochemical. Particulars: 2 mg/ml in 0.1 M NaHCO3, 37° C., exposed to air, FIG. 23. (Ellman's reagent forms a yellow product with free thiols.)
For data set [12], the system named is 9B.G5. Nature of the data set: Solid phase RIA: binding of 9B.G5 to peptide coated plates. Conditions: FIG. 24. As to the method:
RIA plates (Dynatech Laboratories, Alexandria, Va.) were coated with peptides by evaporation of varying amounts of peptides in distilled water overnight at 37° C. The wells were washed with PBS, blocked with 2% bovine serum albumin (BSA) in PBS with 0.1% NaN3, and washed with PBS. Partially purified 9BG5 [(NH4)2SO4 precipitate] was added at varying dilutions for greater than 1 hour at 37° C. The wells were washed in PBS and 50,000-100,000 counts per minute of ^125I-labelled goat anti-mouse light chain (anti-k & anti-[Sigma] iodinated by chloramine T) was added per well in 1% BSA in PBS for 1-2 hours at 37° C. The wells were decanted, washed extensively, and CPM bound determined. Specific CPM bound was determined by subtracting the CPM bound to uncoated wells from the CPM bound to peptide coated wells.
To assess the optimal conformation for binding of the VL peptide analogs, they were utilized to coat radioimmunoassay (RIA) plates, and 9B.G5 bound by standard RIA procedures.

Data set [13] addresses T1, Thy2 molecules (Mus musculus, UniProt P01831).
T1 sequence (P01831 20-131): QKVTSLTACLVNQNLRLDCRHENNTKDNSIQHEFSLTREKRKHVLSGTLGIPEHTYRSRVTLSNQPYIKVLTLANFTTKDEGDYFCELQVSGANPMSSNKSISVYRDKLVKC
Nature of the data set: Flow cytometry: inhibition of H013.4 binding (specificity). Further details: species or system murine. Particulars: FIG. 30. On the technique in general: In flow cytometry, cells or beads pass a laser one at a time.

A short description of data set [14]: Size-exclusion chromatography of oxidized peptides (Sephadex G-10). In kind it is physicochemical. Conditions: reduced versus non-reduced peptides. (In general: In gel filtration, larger molecules generally elute earlier.)
For data set [15], the system named is reovirus type 3 receptor (Reo3R). Put plainly: Flow cytometry: inhibition of 87.92.6 binding to cells. Particulars: FIG. 29. Further details: species or system murine. Here is the method:
The ability of peptides to inhibit antibody binding to cells was determined by preincubation of the cells with varying amounts of inhibitor (in 100 μl dH2O) for between 30 minutes and 1 hour at 23° C. Cells (either L cells or R1.1 cells) were washed in 1% BSA/PBS/0.1% NaN3, and resuspended at 10^7/ml. 100 μl of cells were then added in 1% BSA/PBS/0.1% NaN3, and the incubation continued for 20-30 minutes. Antibodies (5 or 10 μl were added for an additional 20 minutes at 23° C. Ice cold 1% BSA/PBS/0.1% NaN3, was added, the cells centrifuged and washed prior to counterstaining with a 1:100 dilution of FITC goat anti-mouse Ig (Fisher Scientific) in 1% BSA/PBS/0.1% NaN3. The cells were washed twice and fluorescence intensity determined. Inhibition of binding was calculated as noted above with mean channel number utilized in place of CPM.
To assess the affinity of the cyclic peptides for the reovirus type 3 receptor (Reo3R), they were utilized in a series of assays to inhibit binding of 87.92.6 or control antibodies to specific receptors. […] The inhibition by VLC9C16 peptide was specific as binding of isotype matched monoclonal H013.4 to Thy2 molecules was not inhibited by VLC9C16 peptide (FIG. 30). Thus, VLC9C16 peptide is a specific Reo3R ligand with enhanced affinity compared with its linear analog.

The subject of data set [16] is 9B.G5. Nature of the data set: Competitive RIA: inhibition of 9B.G5 - reovirus type 3 interaction. The format is binding.
For data set [17], the system named is […]-infected H9 cells. Nature of the data set: Flow cytometry: mouse antisera binding to infected H9 cells. In kind it is in vivo. Conditions: subcutaneous immunization of mice.
Data set [18] has as its system HIV. Put plainly: Blocking of virus binding by gp120 421-438 peptide. The source says: A molecular model for the region 413-455 (FIG. 19) may be constructed based upon these structural concepts, utilizing a light-chain antibody structure known as REI (Bernstein et al., 1977, Mol. Biol. 112:535-542) as a template for the first and third hypervariable region, in which the cysteines in gp120 at positions 418 and 445 form a disulfide bridge. The cysteines are positionally conserved with respect to each other as in the light chain. The model may be energy optimized using molecular mechanics and dynamics. […] The in vitro biological activity of the 421-438 peptide fragment in modulating CD4-depending cellular function and this fragment's ability to induce an anti-HIV response is as described below.

Data set [19] concerns recombinant HIV-1 gp120. Particulars: rabbits immunized with peptide conjugated to KLH, FIG. 21. As to the method: Antisera was obtained and tested for binding to recombinant HIV-1 gp120 peptide-coated radioimmunoassay plates (using 1 μg/ml gp120 at 50 μl/well, in 0.1 M NaHCO3 and incubating overnight at 4° C.). The indicator antibody was ^125I-labelled anti-rabbit immunoglobulin antibody.

Data set [20] concerns HIV. Put plainly: Infectivity assays with rabbit antisera. Particulars: in vivo.
In data set [21] the test system is recombinant glycosylated gp120. Particulars: radiolabelled immunoprecipitations. Here is the method:
The immunogenicity of B138 was determined by subcutaneous immunization of mice and rabbits.

Ends that are not written are not given here.

Take “Gln Ser Met --- Trp Ile Gly Ile Val Ser Tyr Ser Gly Ser Gly Leu Asn (WIGIVSYSGSGLN; N-terminal Gln-Ser-Met; printed: Trp Ile Gly Ile Val Ser Tyr Ser Gly Ser Gly Leu Asn) [reo peptide, amino acids 317-332 in the type 3 viral hemagglutinin]”: in data set [1], the “proliferative response to reovirus type 3 in spleen cells from immunized mice” value is listed as “type specific proliferative response”. For the same substance, the “neutralization of L-cell lysis by reovirus type 1 by immune serum” value in data set [2] is given as “not type 1”. The “specific binding of 9BG5 to peptide coated wells” value in [3] was “Strong reproducible binding”. Besides, in data set [4], the “inhibition of plaque formation by type 1 virus by immune serum” value is “not type 1”. For the same substance, in data set [5], the “neutralization of L-cell lysis by reovirus type 3 by immune serum” value is “specifically neutralized”. The “binding of immune serum to type 1 virus coated plates” value in data set [6] is listed as “significant binding”. The “binding of immune serum to type 3 virus coated plates” value in [7] is “significant binding”. Moreover, the “inhibition of plaque formation by type 3 virus by immune serum” value in [8] is on record as “specific inhibition of plaque formation”.
For “KPGKTNKLCIYSGSTCQ (cysteine pairing not given here) [VLC9C16 peptide]”, in data set [9] (inhibition of 9B.G5 - 87.92.6 interaction, FIG. 26), the “increase in binding affinity for 9B.G5 compared with linear analog of VL peptide” value was determined as 40 fold. Moreover, the “inhibition of 9B.G5 - 87.92.6 interaction” value in data set [9] (liquid phase assay, FIGS. 25 and 26) is “higher affinity of interaction compared with the other cyclic peptide variants”. For the same substance, in [10] (FIG. 31), the “affinity for the Reo3R by competition with 125I-labelled reovirus type 3” value is “higher affinity for the Reo3R than VLC8C16 peptide or VLC10C16 peptide”. Moreover, in data set [10] (competition with 125I-labelled reovirus type 3), the “increase in affinity for the Reo3R compared with linear VL peptide” value came out at 40 fold. Besides, the “rate of loss of sulfhydryls” value in data set [11] is given as “most rapid loss of sulfhydryls”. In addition, the “binding of 9B.G5 to peptide on solid phase RIA” value in [12] was “higher than binding to the other cyclic VL peptide analogs”. Further, the “inhibition of binding of isotype matched monoclonal H013.4” value in data set [13] is given as “not inhibited”. In data set [14], the “molecular form following oxidation by size-exclusion chromatography” value is on record as “remained chiefly as monomers”. Also, in [15] (L cells), the “inhibition of binding of 87.92.6 to murine L cells” value was “inhibited binding”. The “inhibition of binding of 87.92.6 to R1.1 thymoma cells” value in [15] (R1.1 cells) is on record as “inhibited binding”. In data set [16] (FIG. 27), the “inhibition of binding of 125I-labelled reovirus type 3 to 9B.G5, compared with other cyclic peptides” value was “higher affinity than the other cyclic peptides”. Further, the “inhibition of binding of 125I-labelled reovirus type 3 to 9B.G5, compared with linear VL and dimeric VLSH peptide” value in data set [16] (FIG. 28) was “higher affinity than linear VL peptide, and similar affinity on a molar basis as dimeric VLSH peptide”.
Turning to KQFINMWQEVGKAMYAPP [B138], the “binding of mouse antisera to infected H9 cells” value in [17] was “preferentially bind”. The “blocking of virus binding” value in [18] is “shown to block virus binding”. For the same substance, the “level of antiserum antibody bound to gp120 coated plates” value in data set [19] is on record as “lower levels of bound antibody”. The “elicitation of neutralizing antibodies (infectivity assays with rabbit sera)” value in data set [20] is “could elicit neutralizing antibodies”. In addition, in data set [21], the “immunoprecipitation of recombinant glycosylated gp120 by rabbit antisera” value is “weakly”.

Values taken from patent US6372884B1, “Biologically active compounds and methods of constructing and using the same” (priority 1987, dated 2002).
